Measured values taken from US10214507B2, “Carbazole-containing amides, carbamates, and ureas as cryptochrome modulators” (Reset Therapeutics, Inc., priority 2014, dated 2019).

Each molecule was assayed on stable U20S reporter cells harboring Per2-dLuc (assay: Per2 assay for evaluating the potency of test compounds (circadian luciferase reporter)). Conditions: amplitude of Per2-dLuc luminescence vs log concentration.
Assay type: cell-based
Procedure: Compounds were screened by using a high-throughput circadian assay system as previously described in Zhang, E. E. et al. Cell, 2009, 139, 199-210. In brief, stable U20S reporter cells harboring Per2-dLuc were plated at a density of 30,000 cells/well in Corning 96-well, solid white, flat bottom, TC-treated microplates (Corning®), and incubated for 48 hours at 37° C. in the presence of 5% CO2 in a medium of Dulbecco's Modified Eagle Medium (DMEM) supplemented with 10% fetal bovine serum (FBS) and penicillin (100 units/mL)-streptomycin (100 μg/mL). […] DMSO stocks are then serially diluted in DMSO, typically diluting 3-fold for each dilution step. Following the 48 h period, cell culture medium is removed from plated cells and cells are synchronized with 200 μL/well of complete cell culture medium (described above), supplemented with 5 μM forskolin (Tocris®) and 1 mM beetle luciferin (Promega®). Immediately following synchronization, 1 μL of compound dilution is added to each well. Plates are sealed, shaken briefly, and gene expression was monitored by measuring luminescence (Tecan® Infinite M200 or Tecan® Infinite M200 Pro) continuously for a minimum of 3 days at 35° C. Raw luminescence data (counts) are first analyzed using Multicycle™ software (Actimetrics, Inc.) to determine the amplitude (amp), period, and phase (phz) for each compound concentration. The period length for control wells (i.e. no compound, DMSO only) should be 26-30 h. Amp data are then plotted against the logarithm compound concentration (M) and analyzed by nonlinear regression analysis to determine the EC50.

SMILES	EC50 [nM]
CC(O)(CN1CCCN(C2CCC2)C1=O)Cn1c2ccc(F)cc2c2cc(F)ccc21 (stereo not shown) [Compound 81, 1-cyclobutyl-3-(3-(3,6-difluoro-9H-carbazol-9-yl)-2-hydroxy-2-methylpropyl)tetrahydropyrimidin-2(1H)-one]	816
CC(O)(CN1CCCN(C2CCCCC2)C1=O)Cn1c2ccc(F)cc2c2cc(F)ccc21 (stereo not shown) [Compound 82, 1-cyclohexyl-3-(3-(3,6-difluoro-9H-carbazol-9-yl)-2-hydroxy-2-methylpropyl)tetrahydropyrimidin-2(1H)-one]	1190
O=C1N(CC(O)Cn2c3ccc(F)cc3c3cc(F)ccc32)CCCN1C1CC1 (stereo not shown) [Compound 83, 1-cyclopropyl-3-(3-(3,6-difluoro-9H-carbazol-9-yl)-2-hydroxypropyl)tetrahydropyrimidin-2(1H)-one]	147
O=C1NCCN1CC(O)Cn1c2ccccc2c2ccccc21 (stereo not shown) [Compound 84, 1-(3-(9H-carbazol-9-yl)-2-hydroxypropyl)imidazolidin-2-one]	325
CC1CN(CC(O)Cn2c3ccc(F)cc3c3cc(F)ccc32)C(=O)N1 (stereo not shown) [Compound 85, 1-(3-(3,6-difluoro-9H-carbazol-9-yl)-2-hydroxypropyl)-4-methylimidazolidin-2-one]	667
CCN1CCCN(CC(O)Cn2c3ccc(F)cc3c3cc(F)ccc32)C1=O (stereo not shown) [Compound 86, 1-(3-(3,6-difluoro-9H-carbazol-9-yl)-2-hydroxypropyl)-3-ethyltetrahydropyrimidin-2(1H)-one]	497
CCN1CCCN(CC(C)(O)Cn2c3ccc(F)cc3c3cc(F)ccc32)C1=O (stereo not shown) [Compound 87, 1-(3-(3,6-difluoro-9H-carbazol-9-yl)-2-hydroxy-2-methylpropyl)-3-ethyltetrahydropyrimidin-2(1H)-one]	317
O=C1N(CC(O)Cn2c3ccc(F)cc3c3cc(F)ccc32)CCN1C1CCCCC1 (stereo not shown) [Compound 88, 1-cyclohexyl-3-(3-(3,6-difluoro-9H-carbazol-9-yl)-2-hydroxypropyl)imidazolidin-2-one]	310
O=C1N(CC(O)Cn2c3ccc(F)cc3c3cc(F)ccc32)CCN1c1ccccc1 (stereo not shown) [Compound 89, 1-(3-(3,6-difluoro-9H-carbazol-9-yl)-2-hydroxypropyl)-3-phenylimidazolidin-2-one]	438
CC(C)N1CCN(CC(O)Cn2c3ccc(F)cc3c3cc(F)ccc32)C1=O (stereo not shown) [Compound 90, 1-(3-(3,6-difluoro-9H-carbazol-9-yl)-2-hydroxypropyl)-3-isopropylimidazolidin-2-one]	605
O=C1N(CC(O)Cn2c3ccc(F)cc3c3cc(F)ccc32)CCN1C1CCCC1 (stereo not shown) [Compound 91, 1-cyclopentyl-3-(3-(3,6-difluoro-9H-carbazol-9-yl)-2-hydroxypropyl)imidazolidin-2-one]	621
O=C1N(CC(O)Cn2c3ccc(F)cc3c3cc(F)ccc32)CCN1C1CC1 (stereo not shown) [Compound 92, 1-cyclopropyl-3-(3-(3,6-difluoro-9H-carbazol-9-yl)-2-hydroxypropyl)imidazolidin-2-one]	527
O=C1N(CC(O)Cn2c3ccc(F)cc3c3cc(F)ccc32)CCN1C1CCC1 (stereo not shown) [Compound 93, 1-cyclobutyl-3-(3-(3,6-difluoro-9H-carbazol-9-yl)-2-hydroxypropyl)imidazolidin-2-one]	129
CC1CN(C)C(=O)N(CC(O)Cn2c3ccc(F)cc3c3cc(F)ccc32)C1 (stereo not shown) [Compound 94, 1-(3-(3,6-difluoro-9H-carbazol-9-yl)-2-hydroxypropyl)-3,5-dimethyltetrahydropyrimidin-2(1H)-one]	833
CCN1CCCN(CC(O)Cn2c3ccccc3c3ccccc32)C1=O (stereo not shown) [Compound 95, 1-(3-(9H-carbazol-9-yl)-2-hydroxypropyl)-3-ethyltetrahydropyrimidin-2(1H)-one]	568
O=C1N(CC(O)Cn2c3ccccc3c3ccccc32)CCN1C1CCC1 (stereo not shown) [Compound 96, 1-(3-(9H-carbazol-9-yl)-2-hydroxypropyl)-3-cyclobutylimidazolidin-2-one]	493
O=C1N(CC(O)Cn2c3ccccc3c3ccccc32)CCN1C1CC1 (stereo not shown) [Compound 97, 1-(3-(9H-carbazol-9-yl)-2-hydroxypropyl)-3-cyclopropylimidazolidin-2-one]	315
CC(C)N1CCN(CC(O)Cn2c3ccccc3c3ccccc32)C1=O (stereo not shown) [Compound 98, 1-(3-(9H-carbazol-9-yl)-2-hydroxypropyl)-3-isopropylimidazolidin-2-one]	269
O=C1N(CC(O)Cn2c3ccccc3c3ccccc32)CCCN1C1CC1 (stereo not shown) [Compound 99, 1-(3-(9H-carbazol-9-yl)-2-hydroxypropyl)-3-cyclopropyltetrahydropyrimidin-2(1H)-one]	555

SMILES	EC50 [nM]
O=C1N(CC(O)Cn2c3ccccc3c3ccccc32)CCCN1C1CCC1 (stereo not shown) [Compound 100, 1-(3-(9H-carbazol-9-yl)-2-hydroxypropyl)-3-cyclobutyltetrahydropyrimidin-2(1H)-one]	721
CC1CCN(CC(O)Cn2c3ccc(F)cc3c3cc(F)ccc32)C(=O)N1C (stereo not shown) [Compound 101, 1-(3-(3,6-difluoro-9H-carbazol-9-yl)-2-hydroxypropyl)-3,4-dimethyltetrahydropyrimidin-2(1H)-one]	417
CC(O)(CN1Cc2ccccc2NC1=O)Cn1c2ccc(F)cc2c2cc(F)ccc21 (stereo not shown) [Compound 102, 3-(3-(3,6-difluoro-9H-carbazol-9-yl)-2-hydroxy-2-methylpropyl)-3,4-dihydroquinazolin-2(1H)-one]	455
O=C1Nc2ccccc2CN1CC(O)Cn1c2ccc(F)cc2c2cc(F)ccc21 (stereo not shown) [Compound 103, 3-(3-(3,6-difluoro-9H-carbazol-9-yl)-2-hydroxypropyl)-3,4-dihydroquinazolin-2(1H)-one]	940
O=C1[C@@H]2CC[C@@H](C2)N1C[C@H](O)Cn1c2ccc(F)cc2c2cc(F)ccc21 [Compound 104, (1S,4R)-2-((R)-3-(3,6-difluoro-9H-carbazol-9-yl)-2-hydroxypropyl)-2-azabicyclo[2.2.1]heptan-3-one]	115
O=C1[C@H]2CC[C@H](C2)N1C[C@H](O)Cn1c2ccc(F)cc2c2cc(F)ccc21 [Compound 105, (1R,4S)-2-((R)-3-(3,6-difluoro-9H-carbazol-9-yl)-2-hydroxypropyl)-2-azabicyclo[2.2.1]heptan-3-one]	54
O=C1[C@@H]2CC[C@@H](C2)N1C[C@H](O)Cn1c2ccccc2c2ccccc21 [Compound 106, (1S,4R)-2-((R)-3-(9H-carbazol-9-yl)-2-hydroxypropyl)-2-azabicyclo[2.2.1]heptan-3-one]	220
O=C1[C@H]2CC[C@H](C2)N1C[C@H](O)Cn1c2ccccc2c2ccccc21 [Compound 107, (1R,4S)-2-((R)-3-(9H-carbazol-9-yl)-2-hydroxypropyl)-2-azabicyclo[2.2.1]heptan-3-one]	89
O=C1[C@H]2CC[C@H](C2)N1C[C@@H](O)Cn1c2ccccc2c2ccccc21 [Compound 108, (1R,4S)-2-((S)-3-(9H-carbazol-9-yl)-2-hydroxypropyl)-2-azabicyclo[2.2.1]heptan-3-one]	750
C[C@@H]1CCC(=O)N1C[C@H](O)Cn1c2ccc(F)cc2c2cc(F)ccc21 [Compound 109, (R)-1-((R)-3-(3,6-difluoro-9H-carbazol-9-yl)-2-hydroxypropyl)-5-methylpyrrolidin-2-one]	226
C[C@H]1CCC(=O)N1C[C@H](O)Cn1c2ccc(F)cc2c2cc(F)ccc21 [Compound 110, (S)-1-((R)-3-(3,6-difluoro-9H-carbazol-9-yl)-2-hydroxypropyl)-5-methylpyrrolidin-2-one]	830
C[C@@H]1CCC(=O)N1C[C@H](O)Cn1c2ccccc2c2ccccc21 [Compound 111, (R)-1-((R)-3-(9H-carbazol-9-yl)-2-hydroxypropyl)-5-methylpyrrolidin-2-one]	95
C[C@H]1CCC(=O)N1C[C@H](O)Cn1c2ccccc2c2ccccc21 [Compound 112, (S)-1-((R)-3-(9H-carbazol-9-yl)-2-hydroxypropyl)-5-methylpyrrolidin-2-one]	470
C[C@@H]1CCC(=O)N1C[C@@H](O)Cn1c2ccccc2c2ccccc21 [Compound 113, (R)-1-((S)-3-(9H-carbazol-9-yl)-2-hydroxypropyl)-5-methylpyrrolidin-2-one]	948
C[C@H]1CCN(C[C@H](O)Cn2c3ccc(F)cc3c3cc(F)ccc32)C1=O [Compound 115, (S)-1-((R)-3-(3,6-difluoro-9H-carbazol-9-yl)-2-hydroxypropyl)-3-methylpyrrolidin-2-one]	500
C[C@@H]1CCN(C[C@H](O)Cn2c3ccc(F)cc3c3cc(F)ccc32)C1=O [Compound 116, (R)-1-((R)-3-(3,6-difluoro-9H-carbazol-9-yl)-2-hydroxypropyl)-3-methylpyrrolidin-2-one]	311
C[C@H]1CCN(C[C@H](O)Cn2c3ccccc3c3ccccc32)C1=O [Compound 117, (S)-1-((R)-3-(9H-carbazol-9-yl)-2-hydroxypropyl)-3-methylpyrrolidin-2-one]	188
C[C@@H]1CCN(C[C@H](O)Cn2c3ccccc3c3ccccc32)C1=O [Compound 118, (R)-1-((R)-3-(9H-carbazol-9-yl)-2-hydroxypropyl)-3-methylpyrrolidin-2-one]	120
